Data reported in patent US20190112316A1, “THIAZOLO[3,2-A] PYRIMIDINONE AND OTHER HETEROBICYCLIC PYRIMIDINONE COMPOUNDS FOR USE IN MEDICAL THERAPY” (priority 2015, published 2019).

Target: T1, glucocerebrosidase (Gcase) (Homo sapiens, UniProt P04062)
T1 construct: micellar solution containing 10 nM GCase and 100 nM saposin C (Enzo ALX-201-262-C050)
T1 sequence (P04062 40-536): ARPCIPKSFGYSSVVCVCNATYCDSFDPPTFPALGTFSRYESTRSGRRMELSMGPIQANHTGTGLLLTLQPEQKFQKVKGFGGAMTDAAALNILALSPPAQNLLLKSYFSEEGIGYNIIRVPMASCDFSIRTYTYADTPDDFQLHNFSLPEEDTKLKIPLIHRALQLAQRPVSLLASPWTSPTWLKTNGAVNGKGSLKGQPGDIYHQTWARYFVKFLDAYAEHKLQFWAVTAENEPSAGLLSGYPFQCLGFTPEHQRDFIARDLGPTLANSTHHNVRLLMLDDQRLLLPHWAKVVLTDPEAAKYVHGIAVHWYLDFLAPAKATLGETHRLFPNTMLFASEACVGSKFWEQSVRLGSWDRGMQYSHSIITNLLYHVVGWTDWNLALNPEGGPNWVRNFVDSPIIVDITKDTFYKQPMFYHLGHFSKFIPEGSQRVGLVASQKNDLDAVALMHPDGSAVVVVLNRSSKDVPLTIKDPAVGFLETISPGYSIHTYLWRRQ
Experiment: Glucocerebrosidase (Gcase) activation assay, 4-methylumbelliferyl-beta-D-glucopyranoside substrate, with saposin C
Type: biochemical
Settings: for activation at 1 µM: read-out: Percent Gcase Activation 1 μM Test Compound; for activation at 0.1 µM: read-out: Percent Gcase Activation 0.1 μM Test Compound
Method: A 484 μL aliquot of a 1.0 mg/mL solution of phosphatidylserine (PS) (Sigma P7769) in chloroform was evaporated under a stream of nitrogen for 1 hour. The lipid film was dissolved over 4 minutes of vigorous vortexing in 40 mL of 176 mM K2HPO4/50 mM citric acid (pH 4.7) containing 7.5 μL of triton X-100, resulting in a mixed micellar preparation with a composition of 0.32 mM triton and 0.37 mol % PS. 4-Methylumbelliferyl-beta-D-glucopyranoside (ACROS-337025000) was dissolved in the micellar solution to a final concentration of 2 mM for use as the reaction substrate.
Test compounds were diluted to the desired concentrations with dimethylsulfoxide (DMSO) from 10 mM stocks, and 0.41 μL of the DMSO compound mixture was added to 100 μL of micellar solution containing 10 nM GCase and 100 nM saposin C (Enzo ALX-201-262-C050). Pre-incubation was allowed to occur for 30 minutes at room temperature, after which the reaction was initiated by combining 25 μL of substrate solution with 25 μL of compound/GCase/saposin mixture. The reaction proceeded for 15 minutes at room temperature and was stopped by adding 150 μL of 1M glycine, pH 12.5. The endpoint of the reaction was monitored by measuring fluorescence intensity (excitation: 365 nm; emission: 440 nm) on a SpectraMax i3 instrument (Molecular Devices). Test compounds were screened at 1.0 and 0.1 μM final concentration, and subsequent 8-point dose response curves were obtained using 3-fold dilutions from a maximum final concentration of 5 μM.

Structure (SMILES) | activation at 1 µM [%] | activation at 0.1 µM [%]
CCCCc1ccc(NC(=O)c2cnc3scc(-c4ccccc4)n3c2=O)cc1 | > 20 | –
Cc1ccc(NC(=O)c2cnc3scc(C)n3c2=O)cc1Cl | 5 to 20 | –
COc1cccc(NC(=O)c2cnc3scc(C)n3c2=O)c1 | 5 to 20 | –
CCc1cccc(NC(=O)c2cnc3scc(C)n3c2=O)c1 | > 20 | –
CCCCOC(=O)c1ccc(NC(=O)c2cnc3scc(C)n3c2=O)cc1 | > 20 | –
Cc1csc2ncc(C(=O)Nc3ccc(F)cc3)c(=O)n12 | < 5 | –
COc1ccc(NC(=O)c2cnc3scc(C)n3c2=O)c(OC)c1 | 5 to 20 | –
O=C(Nc1ccc(-c2cocn2)cc1)c1cnc2n(c1=O)CCS2 | < 5 | < 5
Cc1csc2ncc(C(=O)Nc3ccc(-c4cocn4)cc3)c(=O)n12 | 5 to 20 | < 5
CCC(C)c1ccc(NC(=O)c2cnc3sccn3c2=O)cc1 (stereo not shown) | > 20 | < 5
Cc1ccc(NC(=O)c2cnc3scc(C)n3c2=O)cc1F | 5 to 20 | –
CCc1ccc(NC(=O)c2cnc3sccn3c2=O)cc1 | > 20 | 5 to 20
O=C(Nc1ccc(C2CCCCC2)cc1)c1cnc2n(c1=O)CCS2 | > 20 | 5 to 20
Cc1ccc(NC(=O)c2cnc3sc(C)cn3c2=O)cc1 | 5 to 20 | –
Cc1csc2ncc(C(=O)Nc3ccc(N(C)C)cc3)c(=O)n12 | 5 to 20 | –
Cc1ccn2c(=O)c(C(=O)NC3CCc4ccccc4C3)cnc2c1 (stereo not shown) | 5 to 20 | < 5
CCCCC1CCC(NC(=O)c2cnc3n(c2=O)CCS3)CC1 (stereo not shown) | > 20 | 5 to 20
Cc1sc2ncc(C(=O)Nc3ccc(C(C)C)cc3)c(=O)n2c1C | < 5 | –
Cc1cccc2ncc(C(=O)NC3CCOc4ccccc43)c(=O)n12 (stereo not shown) | 5 to 20 | < 5
O=C(NCCOc1ccccc1)c1cnc2n(c1=O)CCS2 | 5 to 20 | < 5

Structure (SMILES) | activation at 1 µM [%] | activation at 0.1 µM [%]
Cc1cccc2ncc(C(=O)NC3CC4CCC3C4)c(=O)n12 (stereo not shown) | 5 to 20 | < 5
Cc1ccc(NC(=O)c2cnc3scc(C)n3c2=O)c(C)c1 | > 20 | –
CCOc1ccc(NC(=O)c2cnc3scc(C)n3c2=O)cc1 | 5 to 20 | –
COc1ccc(NC(=O)c2cnc3scc(C)n3c2=O)cc1 | > 20 | –
COC(=O)c1ccc(NC(=O)c2cnc3scc(C)n3c2=O)cc1 | 5 to 20 | –
Cc1ccc(NC(=O)c2cnc3sccn3c2=O)cc1C | 5 to 20 | –
Cc1csc2ncc(C(=O)Nc3ccc(Cl)cc3)c(=O)n12 | > 20 | –
CCCCc1ccc(NC(=O)c2cnc3sc4c(n3c2=O)CCCC4)cc1 | 5 to 20 | –
Cc1ccc(NC(=O)c2cnc3scc(C)n3c2=O)cc1C | 5 to 20 | –
O=C(NC1CCOc2ccccc21)c1cnc2n(c1=O)CCS2 (stereo not shown) | 5 to 20 | < 5
CCOc1ccccc1NC(=O)c1cnc2scc(C)n2c1=O | 5 to 20 | –
Cc1cccc2ncc(C(=O)NCCOc3ccccc3)c(=O)n12 | 5 to 20 | < 5
O=C(NC1CC2CCC1C2)c1cnc2n(c1=O)CCS2 (stereo not shown) | < 5 | < 5
O=C(Nc1ccc(-c2ccco2)cc1)c1cnc2n(c1=O)CCS2 | 5 to 20 | 5 to 20
CCCCc1ccc(NC(=O)c2cnc3scc(C)n3c2=O)cc1 | > 20 | 5 to 20
Cc1ccc(NC(=O)c2cnc3n(c2=O)CCS3)cc1-c1ncco1 | 5 to 20 | < 5
Cc1csc2ncc(C(=O)Nc3ccc4c(c3)OCO4)c(=O)n12 | 5 to 20 | < 5
Cc1ccc(CNC(=O)c2cnc3scc(C)n3c2=O)cc1 | 5 to 20 | –
Cc1csc2ncc(C(=O)Nc3ccc(Oc4ccccc4)cc3)c(=O)n12 | > 20 | 5 to 20
Cc1ccccc1NC(=O)c1cnc2scc(C)n2c1=O | 5 to 20 | –
